Source: publication PMC2394487, “Improved radiotracing of oxytocin receptor-expressing tumours using the new [^111In]-DOTA-Lys^8-deamino-vasotocin analogue” (British Journal of Cancer, 2003)
Positions of bridges follow the written chain, without caps; N, C: chain ends. Non-standard residues stand in square brackets, D forms with d. Residues, ends and D or L forms follow the SMILES beside them. *: point of attachment. DOTA = O=C(O)CN1CCN(CC(=O)O)CCN(CC(=O)*)CCN(CC(=O)O)CC1; Mpa = O=C(O)CCS

Legend:
[1] = tested on: OTR+ TS/A tumours; assay: in vivo; design: species or system Balb/c mice; conditions: mouse; for tissue to tissue ratio at 5 h: female, Balb/c, iv, 74 kBq, total radioactivity
Experimental: To determine the amount and specificity of the receptor-mediated uptake of [^111In]-DOTA-dLVT in tumours, we used an experimental model of OTR+ TS/A tumours growing in Balb/c mice. A total of 10 female Balb/c mice weighing 25 g were subcutaneously injected with TS/A mammary carcinoma (0.3 × 10^6 in 0.2 ml of medium). After 20 days, when the growing tumour had reached about 2 cm in diameter, five mice were intravenously administered 50 μg of cold OT 30 min before the radiotracer and the other five were not. Mice were injected in the tail vein with [^111In]-DOTA-dLVT (average activity: 74 kBq) and killed 5 h later. The organs were collected, washed, weighed and their radioactivity was measured in a gamma-ray detector with well-counter geometry ([…], Milan, Italy) together with standards of the injection mixture. Activity was expressed as the percentage of the injected dose (%ID) g^-1 of tissue, and the uptake ratios of tumour, blood, kidney and liver were calculated. [table]

[2] = target: T1, human OTR (Homo sapiens, UniProt P30559); assay: [111In]-DOTA-dLVT saturation binding assay, membranes of transfected COS7 cells
T1 construct: expressed in transfected cells; host or cells: COS7 (monkey kidney), transient electroporation
T1 sequence (P30559 1-389): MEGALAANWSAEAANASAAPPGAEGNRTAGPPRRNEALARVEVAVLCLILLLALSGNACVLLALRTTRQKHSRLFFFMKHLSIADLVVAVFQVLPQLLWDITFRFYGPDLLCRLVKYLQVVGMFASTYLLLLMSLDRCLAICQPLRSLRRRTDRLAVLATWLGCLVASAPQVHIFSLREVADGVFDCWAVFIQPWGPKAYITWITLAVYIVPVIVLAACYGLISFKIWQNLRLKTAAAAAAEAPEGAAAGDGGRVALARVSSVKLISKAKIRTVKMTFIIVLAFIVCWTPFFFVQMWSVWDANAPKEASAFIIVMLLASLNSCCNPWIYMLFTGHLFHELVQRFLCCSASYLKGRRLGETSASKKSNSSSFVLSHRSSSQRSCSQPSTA
Experimental: (§1) Figure 3 Binding of LVT-derived peptides to human OT/AVP receptor subtypes. (A) Comparison of OT and DOTA-dLVT affinity for the human OTR. Competition experiments were performed using membrane preparations of COS7 cells transiently transfected with the wild-type OTR. [^3H]-OT was used at a concentration of 1–2 nM, and nonspecific binding was determined in the presence of […] OT. Data are expressed as the percentage of bound [^3H]-OT in the absence of cold competitor. The curves are representative of three independent assays performed in triplicate. (B) [^111In]-DOTA-dLVT saturation binding assay. The affinity of [^111In]-DOTA-dLVT for the human OTR was measured by incubating increasing amounts of labelled peptide to membrane preparations of COS7 cells transiently transfected with the wild-type OTR. The curve is representative of two independent assays performed in triplicate. […] The membrane preparations of OTR-expressing cells were incubated in the presence of a constant amount of ^3[H]OT (1–2 nM), and nonspecific binding was determined in the presence of 100 μM OT. The membrane preparations of cells expressing V1a, V1b and V2 receptors were incubated in the presence of a constant amount of ^3[H]AVP (2–4 nM), and nonspecific binding was determined in the presence of 100 μM AVP. The data are expressed as percentages of bound [^3H]-ligand in the absence of cold competitor. […]

[3] = target: T1, human OTR; assay: Heterologous competition binding, [3H]-OT displacement, membranes of transfected COS7 cells; conditions: displacement of [3H]-OT; mean±s.e. of three experiments
Experimental: (§2) To determine the LVT, dLVT and DOTA-dLVT affinity constants in comparison with OT, heterologous competition experiments were performed on membranes prepared from monkey kidney COS7 cells transiently transfected by means of electroporation with human OTR, V1a, V2 and V1b cDNAs as previously described ([Chini et al, 1995a]). Briefly, the transfected cells were homogenised with a Dounce glass apparatus, washed twice, and resuspended in binding buffer (50 mM Tris HCl, 5 mM MgCl, pH 7.4). Between 5 and 10 μg of membrane proteins were incubated with a fixed concentration of [^3H]OT (1–2 nM) for 30 min at 30°C in the presence of increasing concentrations of unlabelled peptides. Nonspecific binding was determined in the presence of 1 μM OT. Bound and free radioactivity were separated by filtration over Whatman GF/C filters presoaked in 10 mg ml^−1 BSA. The binding isotherms were analysed using GraphPad Prism.
LVT, dLVT and DOTA-dLVT affinities for the human OTR were determined by means of heterologous competition experiments on membranes prepared from transiently transfected COS7 cells using [^3H]-OT as radioligand.
as §1, with “Competition experiments were performed using membrane preparations of COS7 cells transiently transfected with the wild-type OTR.” left out, “The curves are representative of three independent assays performed in triplicate. (B) [^111In]-DOTA-dLVT saturation binding assay.” left out, “OTR.” for “OTR. The curve is representative of two independent assays performed in triplicate.”, “AVP.” for “AVP. The data are expressed as percentages of bound [^3H]-ligand in the absence of cold competitor.”

[4] = target: T2, human V1a receptor (Homo sapiens, UniProt P37288); assay: Competition binding, [3H]-AVP displacement, membranes of transfected COS7 cells; conditions: displacement of [3H]-AVP; mean±s.e. of three experiments
T2 construct: expressed in transfected cells; host or cells: COS7 (monkey kidney), transient electroporation
T2 sequence (P37288 whole entry): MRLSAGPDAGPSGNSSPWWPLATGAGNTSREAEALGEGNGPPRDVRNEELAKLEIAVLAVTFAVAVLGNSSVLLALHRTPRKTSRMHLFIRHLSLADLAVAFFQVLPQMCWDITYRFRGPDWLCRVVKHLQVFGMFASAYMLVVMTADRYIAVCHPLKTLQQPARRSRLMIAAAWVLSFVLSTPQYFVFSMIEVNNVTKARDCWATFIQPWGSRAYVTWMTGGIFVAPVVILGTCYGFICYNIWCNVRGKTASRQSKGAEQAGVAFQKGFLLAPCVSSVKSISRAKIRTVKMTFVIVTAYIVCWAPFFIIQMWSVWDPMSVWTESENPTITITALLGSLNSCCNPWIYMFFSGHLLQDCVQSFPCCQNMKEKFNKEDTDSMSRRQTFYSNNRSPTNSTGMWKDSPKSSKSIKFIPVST
Experimental: as §2
(§3) Figure 3 Binding of LVT-derived peptides to human OT/AVP receptor subtypes. (A) Comparison of OT and DOTA-dLVT affinity for the human OTR. Competition experiments were performed using membrane preparations of COS7 cells transiently transfected with the wild-type OTR. [^3H]-OT was used at a concentration of 1–2 nM, and nonspecific binding was determined in the presence of […] OT. Data are expressed as the percentage of bound [^3H]-OT in the absence of cold competitor. The curves are representative of three independent assays performed in triplicate. (B) [^111In]-DOTA-dLVT saturation binding assay. The affinity of [^111In]-DOTA-dLVT for the human OTR was measured by incubating increasing amounts of labelled peptide to membrane preparations of COS7 cells transiently transfected with the wild-type OTR. The curve is representative of two independent assays performed in triplicate. (C) Receptor selectivity profile of DOTA-dLVT. Competition experiments were performed using membrane preparations of COS7 cells transiently transfected with the wild-type human OTR, and V1a, V1b and V2 receptors. The membrane preparations of OTR-expressing cells were incubated in the presence of a constant amount of ^3[H]OT (1–2 nM), and nonspecific binding was determined in the presence of 100 μM OT. The membrane preparations of cells expressing V1a, V1b and V2 receptors were incubated in the presence of a constant amount of ^3[H]AVP (2–4 nM), and nonspecific binding was determined in the presence of 100 μM AVP. The data are expressed as percentages of bound [^3H]-ligand in the absence of cold competitor. Each curve is the mean of triplicate determinations of a single representative experiment.

[5] = target: T3, human V1b receptor (Homo sapiens, UniProt P47901); assay: as above; conditions: displacement of [3H]-AVP; mean±s.e. of three experiments
T3 construct: expressed in transfected cells; host or cells: COS7 (monkey kidney), transient electroporation
T3 sequence (P47901 1-424): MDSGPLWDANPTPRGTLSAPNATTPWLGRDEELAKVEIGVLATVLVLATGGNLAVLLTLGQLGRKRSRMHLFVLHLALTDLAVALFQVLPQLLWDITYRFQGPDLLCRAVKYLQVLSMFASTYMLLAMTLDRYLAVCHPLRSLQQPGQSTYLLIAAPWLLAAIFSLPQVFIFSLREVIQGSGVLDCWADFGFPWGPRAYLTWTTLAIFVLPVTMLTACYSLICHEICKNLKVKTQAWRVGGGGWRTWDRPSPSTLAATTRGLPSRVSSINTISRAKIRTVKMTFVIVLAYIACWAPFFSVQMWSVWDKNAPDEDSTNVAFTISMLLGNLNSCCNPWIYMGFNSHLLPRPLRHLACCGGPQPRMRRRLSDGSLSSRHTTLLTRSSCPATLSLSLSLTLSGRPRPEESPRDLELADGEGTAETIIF
Experimental: as §2, §3

[6] = target: T4, human V2 receptor (Homo sapiens, UniProt P30518); assay: as above; conditions: displacement of [3H]-AVP; mean±s.e. of three experiments
T4 construct: expressed in transfected cells; host or cells: COS7 (monkey kidney), transient electroporation
T4 sequence (P30518 whole entry): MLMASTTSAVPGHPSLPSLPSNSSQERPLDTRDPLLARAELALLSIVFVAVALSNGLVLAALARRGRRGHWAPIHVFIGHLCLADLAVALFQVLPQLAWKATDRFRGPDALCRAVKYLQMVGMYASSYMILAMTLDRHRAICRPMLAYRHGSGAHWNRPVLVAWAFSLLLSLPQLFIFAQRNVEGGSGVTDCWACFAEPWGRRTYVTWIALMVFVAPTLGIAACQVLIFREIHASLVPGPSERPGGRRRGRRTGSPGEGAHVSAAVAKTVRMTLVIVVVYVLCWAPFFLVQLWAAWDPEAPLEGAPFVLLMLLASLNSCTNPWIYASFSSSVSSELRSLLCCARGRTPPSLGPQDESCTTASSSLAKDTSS
Experimental: as §2, §3

Structure (SMILES)	tissue to tissue ratio at 5 h ([1]; Tumour/kidney ratio)	tissue to tissue ratio at 5 h ([1]; Tumour/liver ratio)	Tumour/blood ratio [1]	decrease in uptake when TS/A tumours were blocked with 50 μg of cold OT [1]	Kd [2] [nM]	Ki [3] [nM]	Ki [4] [nM]	Ki [5] [nM]	Ki [6] [nM]
CC[C@H](C)[C@@H]1NC(=O)[C@H](Cc2ccc(O)cc2)NC(=O)CCSSC[C@@H](C(=O)N2CCC[C@H]2C(=O)N[C@@H](CCCCNC(=O)CN2CCN(CC(=O)O)CCN(CC(=O)O)CCN(CC(=O)O)CC2)C(=O)NCC(N)=O)NC(=O)[C@H](CC(N)=O)NC(=O)[C@H](CCC(N)=O)NC1=O [[^111In]-DOTA-dLVT, metal not drawn] ([Mpa]YIQNCPK(DOTA)G-NH2; disulfide 1-6)	0.06	1.42	7.58	three-fold decrease	4.5				
CC[C@H](C)[C@@H]1NC(=O)[C@H](Cc2ccc(O)cc2)NC(=O)CCSSC[C@@H](C(=O)N2CCC[C@H]2C(=O)N[C@@H](CCCCN)C(=O)NCC(N)=O)NC(=O)[C@H](CC(N)=O)NC(=O)[C@H](CCC(N)=O)NC1=O [dLVT, reference compound] (HELM PEPTIDE1{[O=C(CCS[*:3])[*:2]].Y.I.Q.N.C.P.K.G.[am]}$PEPTIDE1,PEPTIDE1,1:R3-6:R3$$$V2.0)						3.88 ± 0.585	35.5 ± 6.2	71.7 ± 2	3740 ± 400
